Source: the supplement of paper PMC11208160

Assay: recombinant UMI read abundance after kanamycin selection (control-corrected) (log10(CPM+1)); higher = more efficient recombination; extreme values may be limits of the assay; sequences stand for … in AGTGCAGAGAAAATCGGCCAGTTTTCTCTGCCTGCAGTCCGCATGCCGTGGGACCCCTTGGGTTCTAACCTGTTGCCTAGATTTATGCAGCGGACTGCCTTTCTCCCAAAGTGATAAACCGG…AGGTTGGTTTCACT; site = the 11-nt donor
How it was run: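 Counts of recombinant UMIs were reported as log10(CPM+1). Before that, they were converted to CPM, averaged over replicates and scaled using control-derived factors. They came from PCR across the donor–target junction after Escherichia coli carrying the pair library and target plasmid was plated on IPTG (0.07 mM) plus kanamycin, or unselected, in two replicates each.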
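Also: IS621 bridge recombinase in Escherichia coli cells against a fixed T5 target plasmid.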

Sequence	recombinant UMI read abundance (log10)
TGAAAGGCATGGACCGGTTTTCCCGGTAATCCGTATTTGCT (site TGAAAGGCTAG)	2.34
TGAAGAACATGGACCGGTTTTCCCGGTAATCCGTATTTGGC (site TGAAGAACTGC)	2.29
TGAAGTCCATGGACCGGTTTTCCCGGTAATCCGTATTTGTA (site TAAAGTCCTTA)	0.00928
TGAAGTCCATGGACCGGTTTTCCCGGTAATCCGTATTTGTA (site TCAAGTCCTTA)	1.44
TGAAGTCCATGGACCGGTTTTCCCGGTAATCCGTATTTGTA (site TGAAGTCCTTA)	0.591
TGAAGTCCATGGACCGGTTTTCCCGGTAATCCGTATTTGTA (site TTAAGTCCTTA)	0.888
TGAATACCATGGACCGGTTTTCCCGGTAATCCGTATTTGTC (site TGAATACCTGA)	0
TGAATTTCATGGACCGGTTTTCCCGGTAATCCGTATTTGAG (site TGAATTTCTCT)	0.492
TGACCATCATGGACCGGTTTTCCCGGTAATCCGTATTTGCT (site CGATCATCTAG)	0
TGACCATCATGGACCGGTTTTCCCGGTAATCCGTATTTGCT (site TGACCATCTAG)	2.24
TGACCGGCATGGACCGGTTTTCCCGGTAATCCGTATTTGGG (site TGACCGGCTCC)	0.00617
TGACGTACATGGACCGGTTTTCCCGGTAATCCGTATTTGTC (site TGACGTACTGA)	0.893
TGAGAACCATGGACCGGTTTTCCCGGTAATCCGTATTTGAT (site GACATTGCTCA)	0.0061
TGAGCCTCATGGACCGGTTTTCCCGGTAATCCGTATTTGAC (site TGAGCCTCTGT)	2.84
TGAGCTGCATGGACCGGTTTTCCCGGTAATCCGTATTTGTG (site TAAGCTGCTCA)	0.038
TGAGCTGCATGGACCGGTTTTCCCGGTAATCCGTATTTGTG (site TCAGCTGCTCA)	0
TGAGCTGCATGGACCGGTTTTCCCGGTAATCCGTATTTGTG (site TGAGCTGCTCA)	0.639
TGAGCTGCATGGACCGGTTTTCCCGGTAATCCGTATTTGTG (site TTAGCTGCTCA)	0.0107
TGAGGTCCATGGACCGGTTTTCCCGGTAATCCGTATTTGGA (site TGAGGTCCTTC)	0.172
TGAGTAGCATGGACCGGTTTTCCCGGTAATCCGTATTTGTA (site TGAGTAGCTTA)	2.48
TGAGTGGCATGGACCGGTTTTCCCGGTAATCCGTATTTGGT (site AGAGTGGCTAC)	0.339
TGAGTGGCATGGACCGGTTTTCCCGGTAATCCGTATTTGGT (site CGAGTGGCTAC)	0.605
TGAGTGGCATGGACCGGTTTTCCCGGTAATCCGTATTTGGT (site GGAGTGGCTAC)	0.0161
TGAGTGGCATGGACCGGTTTTCCCGGTAATCCGTATTTGGT (site TGAGTGGCTAC)	0.902
TGAGTTGCATGGACCGGTTTTCCCGGTAATCCGTATTTGCA (site TGAGTTGCTTG)	1.47

Sequence	recombinant UMI read abundance (log10)
TGATAGCCATGGACCGGTTTTCCCGGTAATCCGTATTTGAG (site TGATAGCCTCT)	0.0234
TGATAGCCATGGACCGGTTTTCCCGGTAATCCGTATTTGGA (site TGATAGCCTTC)	0.0136
TGATAGGCATGGACCGGTTTTCCCGGTAATCCGTATTTGGT (site TGATAGGCTAC)	0.902
TGATAGGCATGGACCGGTTTTCCCGGTAATCCGTATTTGGT (site TGCTAGGCTAC)	0.0143
TGATAGGCATGGACCGGTTTTCCCGGTAATCCGTATTTGGT (site TGGTAGGCTAC)	0.0189
TGATAGGCATGGACCGGTTTTCCCGGTAATCCGTATTTGGT (site TGTTAGGCTAC)	0.02
TGATCATCATGGACCGGTTTTCCCGGTAATCCGTATTTGGT (site CGATCATCTAG)	0
TGATCATCATGGACCGGTTTTCCCGGTAATCCGTATTTGGT (site TGATCATCTAC)	1.42
TGCAAGTCATGGACCGGTTTTCCCGGTAATCCGTATTTGGC (site TGCAAGTCTGC)	2.11
TGCACACCATGGACCGGTTTTCCCGGTAATCCGTATTTGAC (site TGAACACCTGT)	0
TGCACACCATGGACCGGTTTTCCCGGTAATCCGTATTTGAC (site TGCACACCTGT)	0.51
TGCACACCATGGACCGGTTTTCCCGGTAATCCGTATTTGAC (site TGGACACCTGT)	0
TGCACACCATGGACCGGTTTTCCCGGTAATCCGTATTTGAC (site TGTACACCTGT)	0
TGCAGGGCATGGACCGGTTTTCCCGGTAATCCGTATTTGCC (site TGCAGGGCTGG)	1.82
TGCAGTGCATGGACCGGTTTTCCCGGTAATCCGTATTTGTT (site TGCAGTGCTAA)	0.416
TGCCCCACATGGACCGGTTTTCCCGGTAATCCGTATTTGAC (site TGCCCCACTGT)	1.39
TGCCGGCCATGGACCGGTTTTCCCGGTAATCCGTATTTGCC (site TGCCGGCCTGG)	0
TGCCGGCCATGGACCGGTTTTCCCGGTAATCCGTATTTGGA (site TGCCGGCCTTC)	0.0137
TGCCTTTCATGGACCGGTTTTCCCGGTAATCCGTATTTGAC (site AGCCTTTCTGT)	0
TGCCTTTCATGGACCGGTTTTCCCGGTAATCCGTATTTGAC (site CGCCTTTCTGT)	0
TGCCTTTCATGGACCGGTTTTCCCGGTAATCCGTATTTGAC (site GGCCTTTCTGT)	0
TGCCTTTCATGGACCGGTTTTCCCGGTAATCCGTATTTGAC (site TGCCTTTCTGT)	0
TGCGGAACATGGACCGGTTTTCCCGGTAATCCGTATTTGTT (site TGCGGAACTAA)	0.718
TGCGGCCCATGGACCGGTTTTCCCGGTAATCCGTATTTGCG (site TGCGGCCCTCG)	0.0374
TGCGGTACATGGACCGGTTTTCCCGGTAATCCGTATTTGAG (site TGCGGTACTCT)	0.757

Sequence	recombinant UMI read abundance (log10)
TGCGGTCCATGGACCGGTTTTCCCGGTAATCCGTATTTGAA (site TGCGGTCCTTT)	0
TGCGGTCCATGGACCGGTTTTCCCGGTAATCCGTATTTGAG (site TGCGGTCCTCT)	0.0157
TGCTAAGCATGGACCGGTTTTCCCGGTAATCCGTATTTGGT (site TGCTAAGCTAC)	0.906
TGCTAAGCATGGACCGGTTTTCCCGGTAATCCGTATTTGGT (site TGCTACGCTAC)	0
TGCTAAGCATGGACCGGTTTTCCCGGTAATCCGTATTTGGT (site TGCTAGGCTAC)	0.0128
TGCTAAGCATGGACCGGTTTTCCCGGTAATCCGTATTTGGT (site TGCTATGCTAC)	0.0152
TGCTAGACATGGACCGGTTTTCCCGGTAATCCGTATTTGGT (site TGCTAGACTAC)	0.462
TGCTAGACATGGACCGGTTTTCCCGGTAATCCGTATTTGGT (site TGCTAGCCTAC)	0.00952
TGCTAGACATGGACCGGTTTTCCCGGTAATCCGTATTTGGT (site TGCTAGGCTAC)	0.0111
TGCTAGACATGGACCGGTTTTCCCGGTAATCCGTATTTGGT (site TGCTAGTCTAC)	0.357
TGCTAGGCATGGACCGGTTTTCCCGGTAATCCGTATTTGGT (site AGCTAGGCTAC)	0.0183
TGCTAGGCATGGACCGGTTTTCCCGGTAATCCGTATTTGGT (site CGCTAGGCTAC)	0.019
TGCTAGGCATGGACCGGTTTTCCCGGTAATCCGTATTTGGT (site GGCTAGGCTAC)	0.0224
TGCTAGGCATGGACCGGTTTTCCCGGTAATCCGTATTTGGT (site TACTAGGCTAC)	0.00634
TGCTAGGCATGGACCGGTTTTCCCGGTAATCCGTATTTGGT (site TCCTAGGCTAC)	0.0105
TGCTAGGCATGGACCGGTTTTCCCGGTAATCCGTATTTGGT (site TGATAGGCTAC)	0.00571
TGCTAGGCATGGACCGGTTTTCCCGGTAATCCGTATTTGGT (site TGCAAGGCTAC)	0
TGCTAGGCATGGACCGGTTTTCCCGGTAATCCGTATTTGGT (site TGCCAGGCTAC)	0.00869
TGCTAGGCATGGACCGGTTTTCCCGGTAATCCGTATTTGGT (site TGCGAGGCTAC)	0.00468
TGCTAGGCATGGACCGGTTTTCCCGGTAATCCGTATTTGGT (site TGCTAAGCTAC)	0.0704
TGCTAGGCATGGACCGGTTTTCCCGGTAATCCGTATTTGGT (site TGCTACGCTAC)	0.0185
TGCTAGGCATGGACCGGTTTTCCCGGTAATCCGTATTTGGT (site TGCTAGACTAC)	0.0977
TGCTAGGCATGGACCGGTTTTCCCGGTAATCCGTATTTGGT (site TGCTAGCCTAC)	0.0225
TGCTAGGCATGGACCGGTTTTCCCGGTAATCCGTATTTGGT (site TGCTAGGCTAA)	0.0155
TGCTAGGCATGGACCGGTTTTCCCGGTAATCCGTATTTGGT (site TGCTAGGCTAC)	0.108
